# How the values were obtained:
# [1] = rat, in vivo
# [2] = cited from earlier work
# [3] = in vivo; conditions: rat
# [4] = in vivo; conditions: dog
# [5] = Crossover study of propranolol plasma levels after nasal, intravenous and oral administration in dogs
# [6] = Bioavailability of propranolol from nasal solution vs oral and intravenous administration in rats (blood levels, AUC); conditions: rat, FIG. 1
structure (smiles),measurement,setting,value
"CC(C)NCC(O)COc1cccc2ccccc12 (centres unmarked) [propranolol, 1-(isopropylamino)-3-(1-naphthyloxy)-2-propanol]",dependence of area under the blood level curve on dose,[1],directly proportional to the dose
same,"oral bioavailability, AUC ratio (oral/nasal)×100",[1]; 240 min,about 15%
same,variation of plasma levels among subjects,"[2]; human, intravenous, 10 mg, same five subjects",varied only two fold
same,variation of peak plasma levels among subjects,"[2]; human, oral, 80 mg, five subjects",varied seven fold
same,bioavailability (ratio of AUC of 80 mg oral dose and 10 mg I.V. dose),"[2]; human, oral, lowest in some subjects",16%
same,absorption from oral dosage forms,[2]; oral dosage forms,inefficiently and variably absorbed from oral dosage forms
same,Tmax,[3],≤ 5 min
same,bioavailability at 4 h,[3]; Ratio (AUC nasal vs I.V.),99.6%
same,bioavailability at 4 h,"[3]; po, Ratio (AUC oral vs I.V.)",17.9%
same,bioavailability at 4 h,"[3]; po, oral bioavailability, AUC ratio (oral/I.V.)×100",~15%
same,bioavailability at 8 h,[4]; AUC(Nasal)/AUC(I.V.),96.7%
same,bioavailability,[4]; bioavailability from the nasal route relative to the intravenous route,99.1%
same,bioavailability at 8 h,"[4]; po, AUC(P.O.)/AUC(I.V.)",8.9%
same,bioavailability,"[4]; po, bioavailability from the oral route relative to the intravenous route",7.4%
same,plasma levels after intravenous and nasal administration compared,"[5]; dog, 20 mg, nasal vs I.V., FIG. 2",virtually identical
same,plasma levels after oral administration,"[5]; dog, 20 mg, oral compared with I.V. and nasal, FIG. 2",considerably lower plasma levels
same,absorption from the nasal mucosa into systemic blood,"[5]; nasal, conclusion from dog study and rat study",rapidly absorbed from the nasal mucosa into systemic blood without the first pass metabolism
same,blood level after nasal administration compared with intravenous administration,[6]; nasal 1 mg vs I.V. 1 mg,identical to the blood level after intravenous administration
same,absorption from the nasal mucosa,[6]; nasal,very rapidly absorbed from the nasal mucosa
same,blood level after oral administration,"[6]; oral, same dosage level (1 mg), compared with nasal and I.V.",considerably lower blood levels
